Results taken from patent US10215755B2, “Method of diagnosing and treating Epstein Barr virus-based myalgic encephalomyelitis chronic fatigue syndrome patients” (CFS, LLC, priority 2012, dated 2019).

Experiments:
[1] = biological target: HV6 DNA polymerases (Human herpesvirus 6A, UniProt P28857); settings: cited from earlier work
[2] = biological target: HCMV DNA polymerases (Human cytomegalovirus, UniProt P08546); settings: cited from earlier work
[3] = tested on: early herpes virus proteins; settings: cited from earlier work
[4] = tested on: group A ME/CFS patients; assay: Follow-up of 106 group A ME/CFS patients 2001-2007 under subset directed antiviral treatment; format: in vivo, human; settings: 79 of 106 group A patients, valacyclovir (EBV subset) or valganciclovir (HCMV, HHV6 subsets), 2001-2007, p<0.0001
Description: A ME/CFS diagnostic panel was created utilizing initial Fukuda/Carruthers criteria and a systematic review of 142 ME/CFS patients. Two groups of ME/CFS patients were found. Group A patients had elevated serum IgG antibody titers to the herpes viruses Epstein-Barr virus (EBV), cytomegalovirus (HCMV) and Human Herpes virus 6 (HHV6) in single or multiple virus infection, but no other co-infections. Group B patients had similar elevated herpes virus antibody titers, plus serologic evidence of co-infections, tick-borne (“Borrelia burgdorferi”, “Anaplasma phagocytophilia”, “Babesia microti”); “Mycoplasma pneumoniae”; or adult rheumatoid fever. One hundred and six group A ME/CFS patients were followed from 2001-2007, and treated with subset directed valacyclovir EBV subset or valganciclovir (HCMV, HHV6 subsets). The data included over 7000 patient visits and 35,000 data entries.

[5] = biological target: EBV thymidine kinase (Epstein-Barr virus, UniProt P03177); settings: after gastrointestinal absorption; cited from earlier work
[6] = tested on: EBV subset ME/CFS patients; assay: Energy Index Point Score (EIPS) of six EBV subset ME/CFS patients treated with valacyclovir for ≥12 months; format: in vivo, human; settings: for EIPS final: valacyclovir ≥12 months
Experimental: As depicted in Table 1, the Energy Index (EI) point score (Copyright, Lerner A M and Deeter R G, 1999), is a simple and reliable metric that can be used to easily evaluate the functional capacity of the CFS patient at each patient-physician visit. The EI is measured on a scale of 1-10. Validation of the EI was done using two methods: 1.) 20 CFS patients and 22 healthy adults, matched for sex, age, place, and time; EI, CFS=3.6; EI, healthy adults=9.9, p=<0.0001; and 2.) 55 CFS patients evaluated at the same time by the EI and fatigue severity score, correlation 0.67, p=0.0066. Improvement to disappearance of CFS symptoms correlates with an increasing EI.
The validated energy index point score generally can be calculated for each CFS patient every 3 months at physician visits. A CFS patient has an EI≤5. A CFS patient with an […] is bedridden; a CFS diagnosis is no longer present at an EI>5. The EI effect size is 0.25, a medium effect size is 0.5. A large effect size is >0.8.
6 ME/CFS patients were identified as Group A EBV subset (five patients), and one patient (group B) had co-infection with Borrelia burgdorferi. […] A ME/CFS treatment decision tree that developed from the systematic review of the 142 ME/CFS patients is provided as FIG. 1.
Demographics. ME/CFS patients (Table 2) the six ME/CFS patients (5 women) were selected from 142 ME/CFS of the 2001-2007 systematic review. They were 37-59 years old. Serum samples were taken at intervals Mar. 5, 2002-Nov. 14, 2003. There were 7 to 10 sera from each patient. Five of the 6 ME/CFS patients were Group A (no co-infections), and one patient had co-infection with Borrelia burgdorferi (patient no. 2). Five of the 6 patients were HCMV IgG serum antibody negative. Initial EIPS values were 3.5-5.0, meaning that patients could be out of bed only 3 to 4 hours a day, and required daily naps in bed to complete each day. One ME/CFS patient was able to struggle to complete a sedentary working day (Table 2, patient no. 6). […] They struggled at baseline to maintain their sedentary working day, required a daytime nap, and could no longer do any exercise without marked syncope and worsening fatigue. One year later the final EIPS values were 7-8, for the 5 group A ME/CFS patients, meaning that patients could now live normal lives. The single group B ME/CFS patient's final EIPS value increased from a baseline of 3.5 to 5, but this […] still met international criteria diagnosis of ME/CFS. The EIPS is a validated (FSS-9 item scale with high degree of internal consistency measured by Cronbach's alpha) is a Functional Activity Appraisal: energy Index Score Healthcare worker Appraisal.

Chain of HCMV DNA polymerases (P08546 whole entry): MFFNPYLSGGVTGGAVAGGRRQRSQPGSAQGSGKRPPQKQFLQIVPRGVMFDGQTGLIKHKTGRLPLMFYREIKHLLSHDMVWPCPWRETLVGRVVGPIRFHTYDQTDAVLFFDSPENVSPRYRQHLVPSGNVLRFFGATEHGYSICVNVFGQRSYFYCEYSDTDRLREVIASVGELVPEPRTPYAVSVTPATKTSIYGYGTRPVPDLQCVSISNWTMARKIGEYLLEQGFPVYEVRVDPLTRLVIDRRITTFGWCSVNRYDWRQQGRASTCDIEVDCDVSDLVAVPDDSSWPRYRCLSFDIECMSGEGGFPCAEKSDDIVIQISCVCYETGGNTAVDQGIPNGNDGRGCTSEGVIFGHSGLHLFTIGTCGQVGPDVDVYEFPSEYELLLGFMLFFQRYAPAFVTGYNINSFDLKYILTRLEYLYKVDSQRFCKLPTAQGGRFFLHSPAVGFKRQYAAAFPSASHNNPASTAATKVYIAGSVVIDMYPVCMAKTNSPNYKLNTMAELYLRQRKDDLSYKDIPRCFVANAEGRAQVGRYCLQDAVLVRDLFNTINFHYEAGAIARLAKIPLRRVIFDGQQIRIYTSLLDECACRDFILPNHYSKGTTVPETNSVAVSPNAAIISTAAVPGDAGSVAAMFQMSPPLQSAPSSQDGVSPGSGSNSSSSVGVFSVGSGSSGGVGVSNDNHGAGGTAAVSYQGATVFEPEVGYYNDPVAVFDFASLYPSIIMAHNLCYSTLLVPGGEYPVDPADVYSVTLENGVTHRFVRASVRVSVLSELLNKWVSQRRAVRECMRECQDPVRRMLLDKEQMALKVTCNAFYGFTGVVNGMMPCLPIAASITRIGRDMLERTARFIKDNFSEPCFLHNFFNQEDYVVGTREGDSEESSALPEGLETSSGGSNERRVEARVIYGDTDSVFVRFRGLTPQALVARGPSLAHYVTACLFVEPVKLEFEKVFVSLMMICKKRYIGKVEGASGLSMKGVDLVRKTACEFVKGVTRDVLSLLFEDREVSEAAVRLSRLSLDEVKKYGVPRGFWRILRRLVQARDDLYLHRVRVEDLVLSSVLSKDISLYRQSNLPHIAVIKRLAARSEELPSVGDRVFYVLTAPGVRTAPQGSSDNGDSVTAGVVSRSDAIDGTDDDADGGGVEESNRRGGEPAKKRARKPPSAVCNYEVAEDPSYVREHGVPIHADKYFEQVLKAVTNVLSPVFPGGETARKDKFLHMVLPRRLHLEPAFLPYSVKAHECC
Chain of HV6 DNA polymerases (P28857 whole entry): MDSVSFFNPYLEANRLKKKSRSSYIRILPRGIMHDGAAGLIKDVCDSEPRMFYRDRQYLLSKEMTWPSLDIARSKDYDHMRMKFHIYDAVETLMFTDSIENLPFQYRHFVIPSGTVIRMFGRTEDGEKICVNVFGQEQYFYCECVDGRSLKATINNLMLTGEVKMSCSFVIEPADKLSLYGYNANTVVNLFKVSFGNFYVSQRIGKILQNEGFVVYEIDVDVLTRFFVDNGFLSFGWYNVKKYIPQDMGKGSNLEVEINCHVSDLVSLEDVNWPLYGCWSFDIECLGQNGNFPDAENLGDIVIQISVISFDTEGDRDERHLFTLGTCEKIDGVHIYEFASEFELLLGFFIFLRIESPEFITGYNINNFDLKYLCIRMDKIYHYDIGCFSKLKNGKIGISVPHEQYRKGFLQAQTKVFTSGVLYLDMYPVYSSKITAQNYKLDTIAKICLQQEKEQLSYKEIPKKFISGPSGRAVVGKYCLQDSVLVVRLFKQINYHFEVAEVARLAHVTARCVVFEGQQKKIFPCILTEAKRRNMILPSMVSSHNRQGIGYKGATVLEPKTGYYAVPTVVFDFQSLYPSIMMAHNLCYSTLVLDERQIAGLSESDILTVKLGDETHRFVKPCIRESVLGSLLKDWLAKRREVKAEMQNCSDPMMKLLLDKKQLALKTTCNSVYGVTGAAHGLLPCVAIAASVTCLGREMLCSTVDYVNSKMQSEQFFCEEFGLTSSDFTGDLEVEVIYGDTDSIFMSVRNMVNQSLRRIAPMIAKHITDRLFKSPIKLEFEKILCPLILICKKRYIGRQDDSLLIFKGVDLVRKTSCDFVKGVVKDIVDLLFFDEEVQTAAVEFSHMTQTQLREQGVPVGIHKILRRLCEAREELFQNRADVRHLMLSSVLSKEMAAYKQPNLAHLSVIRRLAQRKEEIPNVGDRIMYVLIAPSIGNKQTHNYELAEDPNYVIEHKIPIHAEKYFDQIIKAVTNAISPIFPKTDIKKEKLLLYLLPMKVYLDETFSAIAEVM
Chain of EBV thymidine kinase (P03177 whole entry): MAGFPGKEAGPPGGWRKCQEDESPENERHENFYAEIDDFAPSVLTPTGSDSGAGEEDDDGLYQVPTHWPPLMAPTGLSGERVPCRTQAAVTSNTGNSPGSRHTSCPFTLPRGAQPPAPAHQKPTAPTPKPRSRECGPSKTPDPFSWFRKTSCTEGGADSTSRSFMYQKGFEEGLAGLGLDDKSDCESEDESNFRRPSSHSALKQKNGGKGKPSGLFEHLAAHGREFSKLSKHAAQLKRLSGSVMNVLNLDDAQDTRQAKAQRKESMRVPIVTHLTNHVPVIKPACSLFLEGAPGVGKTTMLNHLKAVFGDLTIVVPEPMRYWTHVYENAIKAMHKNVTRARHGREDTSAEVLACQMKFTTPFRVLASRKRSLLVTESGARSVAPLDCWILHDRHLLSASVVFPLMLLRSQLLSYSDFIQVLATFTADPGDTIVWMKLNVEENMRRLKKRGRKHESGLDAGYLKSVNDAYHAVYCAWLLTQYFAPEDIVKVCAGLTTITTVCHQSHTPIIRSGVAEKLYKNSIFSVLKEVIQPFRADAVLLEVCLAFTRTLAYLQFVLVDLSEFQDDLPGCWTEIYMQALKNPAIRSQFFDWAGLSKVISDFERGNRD

Row | SMILES | inhibition of HV6 DNA polymerases [1] | inhibition of HCMV DNA polymerases [2] | inhibition of early herpes virus proteins [3] | group A patients recovered to resume normal life [4] | greater affinity for EBV thymidine kinase than for the host cellular enzyme [5] | EIPS final ([6]; patient 1, Group A, no co-infection, EIPS 5 baseline) | EIPS final ([6]; patient 2, Group B, co-infection Lyme disease, EIPS 3.5 baseline) | EIPS final ([6]; patient 3, Group A, no co-infection, EIPS 5 baseline) | EIPS final ([6]; patient 4, Group A, no co-infection, EIPS 4 baseline) | EIPS final ([6]; patient 6, Group A, no co-infections, EIPS 6 baseline) | final EIPS value ([6]; single group B ME/CFS patient, baseline 3.5, still met criteria of ME/CFS) | final EIPS values ([6]; the 5 group A ME/CFS patients, one year later, initial EIPS 3.5-5.0 (one patient 6))
1 | CC(C)[C@H](N)C(=O)OCC(CO)OCn1cnc2c(=O)nc(N)[nH]c21 (some centres unmarked) [valganciclovir] | inhibits | inhibits | do not inhibit | 74.5% | – | – | – | – | – | – | – | –
2 | CC(C)[C@H](N)C(=O)OCCOCn1cnc2c(=O)[nH]c(N)nc21 [valacyclovir] | – | – | do not inhibit | 74.5% | 200 × | EIPS 8 | EIPS 5 | EIPS 8 | EIPS 7 | EIPS 7 | 5 | 7-8
